Test results as given in publication PMC3705412, “PTP1B Inhibitory and Anti-Inflammatory Effects of Secondary Metabolites Isolated from the Marine-Derived Fungus Penicillium sp. JF-55” (Marine Drugs, 2013).

Tests used:
Assay type in all cases: cell-based, murine (C57BL/6 mice)
NF-κB (p65) = experiment: Western blotting of NF-κB (p65) nuclear translocation in LPS-stimulated macrophages; details: pre-treatment 12 h, LPS 1 μg/mL 1 h
Procedure: Figure 5 The effects of penstyrylpyrone (1) on the protein expression level of IκB-α phosphorylation, degradation of IκB-α (A), NF-κB translocation (B), and NF-κB DNA binding activity (C) in murine peritoneal macrophages. Murine peritoneal macrophages were pre-treated for 12 h at the indicated concentrations of penstyrylpyrone (1), and stimulated for 1 h with LPS (1 μg/mL). Western blotting analysis of IκB-α and p-IκB-α in the cytoplasm and NF-κB in the nucleus (A, B) were performed. A commercially available NF-κB ELISA (Active Motif) was used to test the nuclear extracts and to determine the degree of NF-κB binding (C). […]
(§1) Murine peritoneal macrophages were homogenized (1:20, w:v) in PER-Mammalian Protein Extraction buffer (Pierce Biotechnology, Rockford, IL, USA) containing freshly added protease inhibitor cocktail I (EMD Biosciences, San Diego, CA, USA) and 1 mM phenylmethylsulfonyl fluoride (PMSF). […] The protein concentration was determined using the bicinchoninic acid (BCA) protein assay kit.
(§2) Western blotting analysis was performed by lysing the cells in 20 mM Tris-HCl buffer (pH 7.4) containing a protease inhibitor mixture (0.1 mM PMSF, 5 mg/mL aprotinin, 5 mg/mL pepstatin A, and 1 mg/mL chymostatin). The protein concentration was determined using a Lowry protein assay kit (P5626; Sigma Chemical Co., St. Louis, MO, USA). […]

Nrf2 = experiment: Western blotting of Nrf2 nuclear translocation in macrophages; details: 40 μM; 15, 30, 60, 90 and 120 min
Procedure: Figure 7 The effects of penstyrylpyrone (1) on the nuclear translocation of Nrf2 (A) and anti-oxidant response element (ARE) activation (B) in murine peritoneal macrophages. Murine peritoneal macrophages were treated with 40 μM of penstyrylpyrone (1) for 15, 30, 60, 90 and 120 min. The nuclei were fractionated from the cytosol using PER-Mammalian Protein Extraction buffer. Nrf2 protein was detected using Western blotting analysis and representative blots of three independent experiments are shown. Quiescent cells transiently transfected with ARE-luciferase or control vector were incubated for 1 h with indicated concentrations of latifolin in the presence of 5% FBS. […]
as §1, §2

HO-1 = experiment: Effect of the HO-1 inhibitor SnPP on the inhibition of pro-inflammatory mediators in LPS-stimulated macrophages; details: 40 μM pre-treatment 12 h, SnPP 50 μM, LPS 1 μg/mL 18 h
Procedure: Figure 8 The effects of SnPP on the inhibition of nitrite production (A), PGE2 production (B), NF-κB DNA-binding activity (C), TNF-α production (D), and IL-1β production (E) by penstyrylpyrone (1) pre-treatment of LPS-stimulated murine peritoneal macrophages. Murine peritoneal macrophages were pre-treated for 12 h with penstyrylpyrone (1) (40μM), in the presence or absence of SnPP (50 μM) and stimulated for 18 h with LPS (1μg/mL). The nitrite (A), PGE2 (B), TNF-α (D), and IL-1β (E) concentrations and nuclear NF-κB DNA-binding activity (C) were investigated as described in Materials and Methods. […]
The production of nitrite, a stable end product of NO oxidation, was used as a measure of iNOS activity. The nitrite present in the conditioned medium was determined using a method based on the Griess reaction.
The level of PGE2, TNF-α or IL-1β present in each sample was determined using a commercially available kit from R & D Systems. […] A substrate solution was added, and the intensity of the color produced, which was measured at 450 nm (the correction wavelength was set at 540 nm or 570 nm), was proportional to the amount of PGE2, TNF-α or IL-1β present.
The DNA-binding activity of NF-κB in the nuclear extracts was measured using the TransAM kit (Active Motif, Carlsbad, CA, USA) according to the manufacturer’s instructions.

Compound: COc1cc(/C=C/c2ccccc2)oc(=O)c1C [Penstyrylpyrone (1), penstyrylpyrone]
- Nuclear p65 protein levels (NF-κB translocation) (NF-κB (p65)): gradually inhibited
- Nrf2 levels in nuclear fractions (Nrf2): gradual increase in Nrf2 levels
- Suppressive effects on LPS-stimulated NO, PGE2, TNF-α, IL-1β production and NF-κB DNA-binding activity in presence of SnPP (HO-1): partially reversed by SnPP
